Series [1] deals with HSC-3. Nature of the series: Antiproliferative activity against human HSC-3 cells assessed as inhibition of cell growth incubated for 24 hrs by MTS assay. The class given is functional, cell-based. As to conditions: HSC-3, 24 h. A general note: Tetrazolium dyes change colour on reduction, which living cells bring about.
Series [2] concerns CAL-27. Nature of the series: Antiproliferative activity against human CAL-27 cells assessed as inhibition of cell growth incubated for 24 hrs by MTS assay. It is filed as functional, cell-based. The note with it: CAL-27, 24 h.
Series [3] deals with SCC-4. The experiment in a line: Antiproliferative activity against human SCC-4 cells assessed as inhibition of cell growth incubated for 24 hrs by MTS assay. It is filed as functional, cell-based. The note with it: SCC-4, 24 h.
For series [4], the system named is SCC-9. Nature of the series: Antiproliferative activity against human SCC-9 cells assessed as inhibition of cell growth incubated for 24 hrs by MTS assay. The note with it: SCC-9, 24 h. It is filed as functional, cell-based.
A short description of series [5]: Cytotoxicity against human OKF6/TERT-2 cells assessed as inhibition of cell growth at >7.5 uM incubated for 24 hrs by MTS assay. It is filed as toxicity, cell-based. As to conditions: read-out: Activity.
In series [6] the test system is CAL-27. The experiment in a line: Antitumor activity against human CAL-27 cells xenografted in mouse assessed as mean tumor volume at 12 mg/kg, ip measured for 4 weeks by hematoxylin and eosin staining based analysis (reference value: 541 […]). The class given is functional.
Series [7] concerns CAL-27. The experiment in a line: Antitumor activity against human CAL-27 cells xenografted in mouse assessed as fold decrease in tumor size at 12 mg/kg, ip measured for 4 weeks by hematoxylin and eosin staining based analysis relative to control. It is filed as functional. Background: In xenograft studies the graft and the host belong to different species.
In series [8] the test system is CAL-27. The experiment in a line: Antiproliferative activity against human CAL-27 cells assessed as reduction of cell growth at 500 uM incubated for 24 hrs in presence of cisplatin by MTS assay. The arrangement: scale not given: the % may be the effect or the level left. It is filed as functional.
The subject of series [9] is CAL-27. The experiment in a line: Antiproliferative activity against human CAL-27 cells assessed as reduction of cell growth at 500 uM incubated for 24 hrs in presence of gefitinib by MTS assay. The class given is functional. The arrangement: scale not given: the % may be the effect or the level left.
Series [10] deals with CAL-27. The experiment in a line: Antiproliferative activity against human CAL-27 cells assessed as reduction of cell growth at 500 uM incubated for 24 hrs by MTS assay. It is filed as functional. Also noted: scale not given: the % may be the effect or the level left.
Series [11] has as its system HeLa. Nature of the series: Antiproliferative activity against human HeLa cells assessed as inhibition of cell growth incubated for 24 hrs by MTS assay. The class given is functional, cell-based.
Series [12] relates to NCI-H460. The experiment in a line: Antiproliferative activity against human NCI-H460 cells assessed as inhibition of cell growth incubated for 24 hrs by MTS assay. As to conditions: NCI-H460, 24 h. It is filed as functional, cell-based.
For series [13], the system named is MDA-MB-231. The experiment in a line: Antiproliferative activity against human MDA-MB-231 cells assessed as inhibition of cell growth incubated for 24 hrs by MTS assay. The class given is functional, cell-based. The note with it: MDA-MB-231, 24 h.
For series [14], the system named is PC-3. The experiment in a line: Antiproliferative activity against human PC-3 cells assessed as inhibition of cell growth incubated for 24 hrs by MTS assay. The class given is functional, cell-based. The note with it: PC-3, 24 h.
Series [15] concerns MCF7. The experiment in a line: Antiproliferative activity against human MCF7 cells assessed as inhibition of cell growth incubated for 24 hrs by MTT assay. It is filed as functional, cell-based. The note with it: MCF7, 24 h.
The subject of series [16] is SK-MEL-28. Nature of the series: Antiproliferative activity against human SK-MEL-28 cells assessed as inhibition of cell growth incubated for 24 hrs by MTT assay. As to conditions: SK-MEL-28, 24 h. It is filed as functional, cell-based.
In series [17] the test system is SBcl2. Nature of the series: Antiproliferative activity against human SBcl2 cells assessed as inhibition of cell growth incubated for 24 hrs by MTT assay. As to conditions: SBcl2, 24 h. It is filed as functional, cell-based.
Series [18] is described as follows: Antiproliferative activity against human SK-MEL-85 cells assessed as inhibition of cell growth incubated for 24 hrs by MTT assay. It is filed as functional, cell-based. As to conditions: SK-MEL-85, 24 h.
For series [19], the system named is MCF7. Nature of the series: Antiproliferative activity against human MCF7 cells assessed as inhibition of cell growth by MTT assay. It is filed as functional, cell-based.
Series [20] concerns MDA-MB-231. The experiment in a line: Antiproliferative activity against human MDA-MB-231 cells assessed as inhibition of cell growth by MTT assay. It is filed as functional, cell-based.
Series [21] concerns BT-474. Nature of the series: Antiproliferative activity against human BT-474 cells assessed as inhibition of cell growth by MTT assay. It is filed as functional, cell-based.
Series [22] deals with Jurkat. The experiment in a line: Induction of apoptosis in human Jurkat cells assessed as increase in apoptotic cells by propidium iodide staining based flow cytometry. The class given is functional, cell-based.
Series [23] relates to B16-F10. Nature of the series: Antiproliferative activity against B16-F10 cells assessed as inhibition of cell growth measured after 24 hrs by MTT assay. It is filed as functional, cell-based. The note with it: Mus musculus, B16-F10, 24 h.
The subject of series [24] is NCI-H1299. The experiment in a line: Antiproliferative activity against human NCI-H1299 cells assessed as inhibition of cell growth measured after 24 hrs by MTT assay. The class given is functional, cell-based. As to conditions: NCI-H1299, 24 h.
Series [25] concerns SK-MEL-28. Nature of the series: Antiproliferative activity against human SK-MEL-28 cells assessed as inhibition of cell growth measured after 24 hrs by MTT assay. The class given is functional, cell-based. The note with it: SK-MEL-28, 24 h.
The subject of series [26] is DU-145. Nature of the series: Antiproliferative activity against human DU-145 cells assessed as inhibition of cell growth. It is filed as functional, cell-based.
In series [27] the test system is CAL-27. The experiment in a line: Antiproliferative activity against human CAL-27 cells assessed as reduction of cell growth at 100 nM incubated for 24 hrs by MTS assay. It is filed as functional. Also noted: scale not given: the % may be the effect or the level left.
Series [28] relates to T-24. Nature of the series: Antiproliferative activity against human T24 cells assessed as inhibition of cell growth measured after 24 hrs by MTT assay. As to conditions: T-24, 24 h. It is filed as functional, cell-based.
Series [29] relates to 5637. The experiment in a line: Antiproliferative activity against human 5637 cells assessed as inhibition of cell growth measured after 24 hrs by MTT assay. The class given is functional, cell-based. As to conditions: Homo sapiens, 5637, 24 h.

Broadly, the IC50 is the point on the concentration scale where inhibition reaches its midpoint. Take `Oc1cc2c(cc1O)CN(C(=S)NCCc1ccc(Cl)cc1)CC2`: the IC50 in [1], in series [2], in series [3] and in series [4] was 2.5 µM throughout. The inhibition at 24 h in series [5] amounted to 20%. Besides, the Activity in series [6] was determined as 211 mm3. Besides, in series [7], the “fold change (FC)” value was 2.6.
Turning to `Oc1cc2c(cc1O)C(c1ccccc1)N(C(=S)NCCc1ccc(Cl)cc1)CC2` (stereo not given), the IC50 in [1] was 1 µM; in series [2] it was 1 µM; in series [3], 1 µM; in [4] it was 1 µM; in series [11], approximately 5 µM; in series [12], 7.5 µM. The IC50 in series [13] was found to be 2.5 µM; in series [14], 1 µM. Also, the inhibition at 24 h in [5] came to 20%. For the same molecule, the Activity was 95% in series [8], approximately 80% in series [9], 20% in series [10] and 333 mm3 in series [6]. Besides, the “fold change (FC)” value in series [7] came to 4.
On to `O=S(=O)(NCc1ccc2c(c1)OCO2)c1ccccc1`, for which the IC50 in series [15] worked out at 32 µM; in series [16], 19.1 µM; in series [17], 17.5 µM; in series [18], 15.7 µM.
`CCOC(=O)C1=C(c2ccccc2)NC(C)=C(C(=O)SCCOC)C1CC` (stereo not given): the IC50 came out at 3 µM in [19], 40.8 µM in series [20] and 10.6 µM in [21].
As to `COc1cc(COC(=O)CCCCCC(C)C)ccc1O`, the IC50 in series [22] is approximately 70 µM.
For the molecule `Oc1cc2c(cc1O)C(c1ccccc1)N(C(=S)NCc1ccccc1)CC2` (stereo not given), the IC50 in [1], in [2], in [3] and in series [4] was 20 µM each time. In addition, in [5], the inhibition at 24 h was determined as 20%. For the same molecule, the Activity in series [6] is listed as 134 mm3. In series [7], the “fold change (FC)” value worked out at 1.6.
In the case of `COc1ccc(CC(=O)OCc2ccc3c(c2)OCO3)cc1`, the IC50 in series [23] came out at 117 µM; in series [24] it was 187 µM.
Regarding `CCCCCCCCCCC(=O)OCc1ccc2c(c1)OCO2`, the half-inhibitory concentration (IC50) in series [23] worked out at 87 µM; in series [25], 85 µM.
As for `COc1cc(CNC(=O)CCCC/C=C/C(C)C)ccc1O` [CAPSAICIN], the half-maximal inhibitory concentration (IC50) in series [22] was approximately 128 µM; in [23], 117 µM; in [24], not below 200 µM; in [15] it was approximately 53 µM.
Turning to `Oc1cc2c(cc1O)CN(C(=S)NCCc1ccc(Cl)cc1)CCC2` [CAPSAZEPINE], the 50% inhibitory concentration (IC50) in series [26] came to 54 µM. Besides, the Activity in series [6] is 269 mm3. Moreover, the “fold change (FC)” value in series [7] is reported as 2.
For `COc1cc2ncnc(Nc3ccc(F)c(Cl)c3)c2cc1OCCCN1CCOCC1` [GEFITINIB], the Activity in [27] is reported as 50%.
On to `C=C(C)[C@]12C[C@@H](C)[C@@]34O[C@](Cc5ccccc5)(O[C@@H]1[C@@H]3C=C(COC(=O)Cc1ccc(O)c(OC)c1)C[C@]1(O)C(=O)C(C)=C[C@@H]41)O2` [RESINIFERATOXIN], for which the IC50 in series [28] was approximately 21.4 µM; in series [29] it was 19.9 µM.

These data come from ChEMBL document CHEMBL5338734, “Anticancer Activity of Region B Capsaicin Analogs” (J Med Chem, 2023).
